Reference: patent US9561228B2 (Celgene Avilomics Research, Inc., priority 2013, dated 2017)

What follows are molecules tested on ERK1/2 phosphorylation of p90RSK in A375 cells (assay: Detection of total and phosphor-RSK by MSD ELISA (A375)). Conditions: Homo sapiens, A-375, read-out: ERK1/ERK2 PRSK A375 EC50.
Type: cell-based
Procedure, shortened: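 A375 cells serum-starved overnight in DMEM/0.1% FBS, then treated 2 h at 37° C with compound (1000× DMSO dilutions into medium). Lysates captured on RSK antibody-coated MSD plates; phospho-RSK (Ser380) and total RSK detected with SulfoTag secondary antibodies by electrochemiluminescence.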
With `C=CC(=O)Nc1cc(OC)ccc1Nc1nc(Nc2cc(OC)nc(N3CCN(C)CC3)c2)ncc1C(F)(F)F` [Compound I-334, N-(5-methoxy-2-((2-((2-methoxy-6-(4-methylpiperazin-1-yl)pyridin-4-yl)amino)-5-(trifluoromethyl)pyrimidin-4-yl)amino)phenyl)acrylamide] the EC50 was < 100 nM. In the case of `C=CC(=O)Nc1ccccc1Nc1nc(Nc2cc(OC)cc(OC)c2)ncc1C(F)(F)F` [Compound I-338, N-(2-((2-((3,5-dimethoxyphenyl)amino)-5-(trifluoromethyl)pyrimidin-4-yl)amino)phenyl)acrylamide], the EC50 is reported as < 100 nM. `C=CC(=O)Nc1cc(OC)ccc1Nc1nc(Nc2cc(OC)ncc2C)ncc1C(F)(F)F` [Compound I-284, N-(5-Methoxy-2-((2-((2-methoxy-5-methylpyridin-4-yl)amino)-5-(trifluoromethyl)pyrimidin-4-yl)amino)phenyl)acrylamide] was tested, and the EC50 was < 100 nM. `C=CC(=O)Nc1cc(C)ccc1Nc1nc(Nc2cc(OC)nc(N3CCN(C(C)=O)CC3)c2)ncc1Cl` [Compound I-296, N-(2-((2-((2-(4-acetylpiperazin-1-yl)-6-methoxypyridin-4-yl)amino)-5-chloropyrimidin-4-yl)amino)-5-methylphenyl)acrylamide] was tested, and the EC50 was < 100 nM. For `C=CC(=O)Nc1ccccc1Nc1nc(Nc2cc(OC)ccc2C)ncc1C(F)(F)F` [Compound I-340, N-(2-((2-((5-methoxy-2-methylphenyl)amino)-5-(trifluoromethyl)pyrimidin-4-yl)amino)phenyl)acrylamide], the EC50 was < 100 nM. In the case of `C=CC(=O)Nc1cc(OC)ccc1Nc1nc(N[C@H]2CCCN(C(=O)CO)C2)ncc1C(F)(F)F` [Compound I-64, (S)—N-(2-((2-((1-(2-Hydroxyacetyl)piperidin-3-yl)amino)-5-(trifluoromethyl)pyrimidin-4-yl)amino)-5-methoxyphenyl)acrylamide], the EC50 is reported as 101 to 500 nM. In the case of `C=CC(=O)Nc1ccccc1Nc1nc(Nc2ccnc(F)c2)ncc1C(F)(F)F` [Compound I-287, N-(2-((2-((2-Fluoropyridin-4-yl)amino)-5-(trifluoromethyl)pyrimidin-4-yl)amino)phenyl)acrylamide], the EC50 is reported as < 100 nM. In the case of `C=CC(=O)Nc1cc(OC)ccc1Nc1nc(Nc2cc(OC)ncc2C)ncc1Cl` [Compound I-242, N-(2-((5-chloro-2-((2-methoxy-5-methylpyridin-4-yl)amino)pyrimidin-4-yl)amino)-5-methoxyphenyl)acrylamide], the EC50 is reported as < 100 nM. With `C=CC(=O)Nc1cc(C)ccc1Nc1nc(N[C@H]2CCCN(C(=O)CO)C2)ncc1Cl` [Compound I-140, (S)—N-(2-((5-chloro-2-((1-(2-hydroxyacetyl)piperidin-3-yl)amino)pyrimidin-4-yl)amino)-5-methylphenyl)acrylamide] the EC50 was < 100 nM. `C=CC(=O)Nc1cc(C)ccc1Nc1nc(Nc2cc(OC)nc(N3CCOCC3)c2)ncc1C(F)(F)F` [Compound I-94, N-(2-((2-((2-Methoxy-6-morpholinopyridin-4-yl)amino)-5-(trifluoromethyl)pyrimidin-4-yl)amino)-5-methylphenyl)acrylamide] showed an EC50 of 101 to 500 nM. For `C=CC(=O)Nc1ccccc1Nc1nc(Nc2cc(F)ccc2C)ncc1C(F)(F)F` [Compound I-285, N-(2-((2-((5-Fluoro-2-methylphenyl)amino)-5-(trifluoromethyl)pyrimidin-4-yl)amino)phenyl)acrylamide], the EC50 was > 1000 nM. `C=CC(=O)Nc1cc(OC)ccc1Nc1nc(Nc2cc(OC)nc(N3CCN(C(C)=O)CC3)c2)ncc1C(F)(F)F` [Compound I-91, N-(2-((2-((2-(4-Acetylpiperazin-1-yl)-6-methoxypyridin-4-yl)amino)-5-(trifluoromethyl)pyrimidin-4-yl)amino)-5-methoxyphenyl)acrylamide] was tested, and the EC50 was < 100 nM. In the case of `C=CC(=O)Nc1ccccc1Nc1nc(Nc2cc(OC)nc(N3CCCC3)c2)ncc1C(F)(F)F` [Compound I-281, N-(2-((2-((2-Methoxy-6-(pyrrolidin-1-yl)pyridin-4-yl)amino)-5-(trifluoromethyl)pyrimidin-4-yl)amino)phenyl)acrylamide], the EC50 is reported as < 100 nM. `C=CC(=O)Nc1ccccc1Nc1nc(Nc2cc(OC)nc(N3CCS(=O)(=O)CC3)c2)ncc1C(F)(F)F` [Compound I-291, N-(2-((2-((2-(1,1-Dioxidothiomorpholino)-6-methoxypyridin-4-yl)amino)-5-(trifluoromethyl)pyrimidin-4-yl)amino)phenyl)acrylamide] was tested, and the EC50 was < 100 nM. `C=CC(=O)Nc1ccccc1Nc1nc(Nc2cc(OC)nc(N3CCN(C)CC3)c2)ncc1C(F)(F)F` [Compound I-324, N-(2-((2-((2-methoxy-6-(4-methylpiperazin-1-yl)pyridin-4-yl)amino)-5-(trifluoromethyl)pyrimidin-4-yl)amino)phenyl)acrylamide] gave an EC50 of 101 to 500 nM. In the case of `C=CC(=O)Nc1cc(C)ccc1Nc1nc(Nc2cc(OC)ncc2C)ncc1C(F)(F)F` [Compound I-90, N-(2-((2-((2-Methoxy-5-methylpyridin-4-yl)amino)-5-(trifluoromethyl)pyrimidin-4-yl)amino)-5-methylphenyl)acrylamide], the EC50 is reported as < 100 nM. With `C=CC(=O)Nc1ccccc1Nc1nc(Nc2cc(OC)nc(OCCOC)c2)ncc1C(F)(F)F` [Compound I-283, N-(2-((2-((2-Methoxy-6-(2-methoxyethoxyl)pyridin-4-yl)amino)-5-(trifluoromethyl)pyrimidin-4-yl)amino)phenyl)acrylamide] the EC50 was < 100 nM. In the case of `C=CC(=O)Nc1cc(C)ccc1Nc1nc(Nc2cc(OC)nc(N(C)C3CC3)c2)ncc1C(F)(F)F` [Compound I-342, N-(2-((2-((2-(cyclopropyl(methyl)amino)-6-methoxypyridin-4-yl)amino)-5-(trifluoromethyl)pyrimidin-4-yl)amino)-5-methylphenyl)acrylamide], the EC50 is reported as 101 to 500 nM. With `C=CC(=O)Nc1cc(C)ccc1Nc1nc(Nc2cc(OC)nc(N3CCN(CC)CC3)c2)ncc1C(F)(F)F` [Compound I-89, N-(2-((2-((2-(4-Ethylpiperazin-1-yl)-6-methoxypyridin-4-yl)amino)-5-(trifluoromethyl)pyrimidin-4-yl)amino)-5-methylphenyl)acrylamide] the EC50 was 101 to 500 nM. Molecule `C=CC(=O)Nc1cc(C)ccc1Nc1nc(Nc2cc(OC)cc(OC)c2)ncc1C(F)(F)F` [Compound I-339, N-(2-((2-((3,5-dimethoxyphenyl)amino)-5-(trifluoromethyl)pyrimidin-4-yl)amino)-5-methylphenyl)acrylamide] has an EC50 of 501 to 999 nM. In the case of `C=CC(=O)Nc1cc(C)ccc1Nc1nc(Nc2cc(N[C@H]3CC[C@@H](O)CC3)nc(OC)c2)ncc1C(F)(F)F` [Compound I-326, N-(2-((2-((2-((cis-4-hydroxycyclohexyl)amino)-6-methoxypyridin-4-yl)amino)-5-(trifluoromethyl)pyrimidin-4-yl)amino)-5-methylphenyl)acrylamide], the EC50 is reported as < 100 nM. In the case of `C=CC(=O)Nc1ccccc1Nc1nc(Nc2cc(NCCOC)nc(OC)c2)ncc1C(F)(F)F` [Compound I-286, N-(2-((2-((2-Methoxy-6-((2-methoxyethyl)amino)pyridin-4-yl)amino)-5-(trifluoromethyl)pyrimidin-4-yl)amino)phenyl)acrylamide], the EC50 is reported as < 100 nM. Molecule `C=CC(=O)Nc1cc(C)ccc1Nc1nc(Nc2ccnc(F)c2)ncc1C(F)(F)F` [Compound I-288, N-(2-((2-((2-Fluoropyridin-4-yl)amino)-5-(trifluoromethyl)pyrimidin-4-yl)amino)-5-methylphenyl)acrylamide] has an EC50 of 101 to 500 nM. For `C=CC(=O)Nc1cc(F)ccc1Nc1nc(Nc2cc(OC)ncc2C)ncc1C(F)(F)F` [Compound I-322, N-(5-fluoro-2-((2-((2-methoxy-5-methylpyridin-4-yl)amino)-5-(trifluoromethyl)pyrimidin-4-yl)amino)phenyl)acrylamide], the EC50 was < 100 nM. In the case of `C=CC(=O)Nc1cc(C)ccc1Nc1nc(Nc2cc(OC)nc(N3CC(O)C3)c2)ncc1C(F)(F)F` [Compound I-328, N-(2-((2-((2-(3-hydroxyazetidin-1-yl)-6-methoxypyridin-4-yl)amino)-5-(trifluoromethyl)pyrimidin-4-yl)amino)-5-methylphenyl)acrylamide], the EC50 is reported as < 100 nM. `C=CC(=O)Nc1cc(C)ccc1Nc1nc(Nc2cc(OC)nc(N(C)CCOC)c2)ncc1C(F)(F)F` [Compound I-336, N-(2-((2-((2-methoxy-6-((2-methoxyethyl)(methyl)amino)pyridin-4-yl)amino)-5-(trifluoromethyl)pyrimidin-4-yl)amino)-5-methylphenyl)acrylamide] was tested, and the EC50 was 101 to 500 nM. `C=CC(=O)Nc1cc(C)ccc1Nc1nc(Nc2cc(OC)ccc2C)ncc1C(F)(F)F` [Compound I-341, N-(2-((2-((5-methoxy-2-methylphenyl)amino)-5-(trifluoromethyl)pyrimidin-4-yl)amino)-5-methylphenyl)acrylamide] was tested, and the EC50 was > 1000 nM. For `C=CC(=O)Nc1cc(OC)ccc1Nc1nc(Nc2cc(OC)nc(N3CCN(CC)CC3)c2)ncc1C(F)(F)F` [Compound I-88, N-(2-((2-((2-(4-Ethylpiperazin-1-yl)-6-methoxypyridin-4-yl)amino)-5-(trifluoromethyl)pyrimidin-4-yl)amino)-5-methoxyphenyl)acrylamide], the EC50 was 101 to 500 nM. In the case of `C=CC(=O)Nc1ccccc1Nc1nc(Nc2cc(OC)nc(OC)c2)ncc1C(F)(F)F` [Compound I-95, N-(2-((2-((2,6-Dimethoxypyridin-4-yl)amino)-5-(trifluoromethyl)pyrimidin-4-yl)amino)phenyl)acrylamide], the EC50 is reported as < 100 nM. For `C=CC(=O)Nc1cc(C)ccc1Nc1nc(Nc2cc(OC)nc(N3CCN(C)CC3)c2)ncc1C(F)(F)F` [Compound I-325, N-(2-((2-((2-methoxy-6-(4-methylpiperazin-1-yl)pyridin-4-yl)amino)-5-(trifluoromethyl)pyrimidin-4-yl)amino)-5-methylphenyl)acrylamide], the EC50 was 101 to 500 nM. `C=CC(=O)Nc1cc(C)ccc1Nc1nc(Nc2cc(NC3CC3)nc(OC)c2)ncc1C(F)(F)F` [Compound I-337, N-(2-((2-((2-(cyclopropylamino)-6-methoxypyridin-4-yl)amino)-5-(trifluoromethyl)pyrimidin-4-yl)amino)-5-methylphenyl)acrylamide] was tested, and the EC50 was < 100 nM.
